Measured values as given in patent publication EP0676201B1, “Use of a riminophenazine for treating MDR resistance” (priority 1994, dated 1995).
Values after ≈ are worked out from the molar mass of the structure shown. Like-named read-outs stand apart in the source and are kept apart here.

Legend:
K562/MMB = test: MTT assay, 7-day exposure to riminophenazines alone or with fixed doxorubicin or vinblastine (Example 4); format: cell-based; details: Homo sapiens, K562, 168 h
Source text: A third cell line (562/MMB) used was a MDR leukemia cell line selected in vitro by progressive exposure to increasing concentrations of vinblastine in order to increase P-glycoprotein expression. […] This cell line expresses high levels of P-glycoprotein as determined by flowcytometry using the monoclonal antibody (MRK 16) against this molecule.
The effects were examined of a 7-day exposure of selected compounds on the sensitivity of the cell line (K562/MMB) to the standard chemotherapeutic agents doxorubicin and vinblastine, using the MTT assay.
The cells were seeded at 1 x 10^4 cells per well in 96 well microlitre plates in a volume of 200 µl of RPMI 1640 medium containing 10 % fetal calf serum and incubated with doxorubicin (12.5 ng/ml) or vinblastine (3 ng/ml). The amounts of MDR modulators used were 0.03, 0.06, 0.125, 0.5, 1.0 and 2.0 µg/ml.
After incubation at 37 °C for 7 days, 20 µl MTT (i.e. 3-[4,5-dimethylthiazol-2-yl]2,5-diphenyl-tetrazolium bromide) at 5 mg/ml was added to each well and the plates incubated for a further 4 hours. The cells were washed with phosphate buffered saline and the intracellular formazan crystals solubilized with dimethylsulphoxide, and the absorbency measured spectrophotometrically at a test wavelength of 540 nm and a reference wavelength of 620 nm.

H69/P = test: MTT assay, 7-day exposure: sensitivity of parent cells to chemotherapeutic agents with or without MDR inhibitor (Example 1); format: cell-based, human; details: for fold sensitivity compared with the chemotherapeutic agent without the MDR inhibitor, B669 / fold sensitivity compared with the chemotherapeutic agent without the MDR inhibitor, Clofazimine (B663) / fold sensitivity compared with the chemotherapeutic agent without the MDR inhibitor, CsA: value in parenthesis; for fold sensitivity compared with the chemotherapeutic agent without the MDR inhibitor, CsA: with CsA 5 µg/ml; for IC50: Homo sapiens, 168 h
Source text: (§1) A further test using no MDR inhibitor was used as a standard.

H69/LX4 = test: MTT assay, 7-day exposure: sensitivity of resistant (MDR) cells to chemotherapeutic agents with or without MDR inhibitor (Example 1); format: cell-based; details: Homo sapiens, 168 h
Source text: as §1
The cell lines used were human small cell lung cancer cell line HP69/P and a multi-drug resistant (MDR) sub-line H69/LX4, both of which were supplied by the MRC Clinical Oncology and Radiotherapeutics Unit, Hills Road, Cambridge, England. The maintenance of the cell lines and drug response assays was done as described by Twentyman et al in British Journal of Cancer Volume 65 pages 335-340. The H69/LX4 line was originally described by Twentyman et al in British Journal of Cancer Volume 53, pages 529-637 (1986).
The data in parenthesis represents fold sensitivity compared with the chemotherapeutic agent without the MDR inhibitor.

[1] = in the presence of doxorubicin (12 ng/ml), read-out: IC 50 of riminophenazine, Doxorubicin
[2] = in the presence of vinblastine (3 ng/ml), read-out: IC 50 of riminophenazine, Vinblastine
[3] = riminophenazine alone, mean of 2 experiments, read-out: IC 50 of riminophenazine, None
[4] = H69/P, with Clofazimine 1 µg/ml
[5] = read-out: IC50 of chemotherapeutic agent, MDR INHIBITOR B669
[6] = read-out: IC50 of chemotherapeutic agent, MDR INHIBITOR Clofazimine (B663)
[7] = read-out: IC50 of chemotherapeutic agent, MDR INHIBITOR CsA
[8] = read-out: IC50 of chemotherapeutic agent, MDR INHIBITOR None
[9] = H69/P, no MDR inhibitor, 7 day exposure, mean of 2 - 4 experiments, read-out: IC50 of chemotherapeutic agent, MDR INHIBITOR None
[10] = H69/P, with B669 0.5 µg/ml, 7 day exposure, read-out: IC50 of chemotherapeutic agent, MDR INHIBITOR B669
[11] = H69/P, with Clofazimine 1 µg/ml, 7 day exposure, read-out: IC50 of chemotherapeutic agent, MDR INHIBITOR Clofazimine (B663)
[12] = H69/LX4, no MDR inhibitor, 7 day exposure, mean of 2 - 4 experiments, read-out: IC50 of chemotherapeutic agent, MDR INHIBITOR None
[13] = H69/LX4, with B669 0.5 µg/ml, 7 day exposure, read-out: IC50 of chemotherapeutic agent, MDR INHIBITOR B669
[14] = H69/LX4, with Clofazimine 1 µg/ml, 7 day exposure, read-out: IC50 of chemotherapeutic agent, MDR INHIBITOR Clofazimine (B663)

Row | Compound | IC50 (K562/MMB; [1]) | IC50 (K562/MMB; [2]) | IC50 (K562/MMB; [3]) | other results
1 | CC1(C)CC(N=c2cc3n(-c4ccccc4)c4ccccc4nc-3cc2Nc2ccccc2)CC(C)(C)N1 [Compound B3962, N,5-bis(phenyl)-3,5-dihydro-3-[(2',2',6',6'-tetramethyl-4-piperidyl)imino]-2-phenazinamine] | 159 ng/mL | 70 ng/mL | 285 ng/mL (≈ 0.568 µM) | 
2 | Cc1ccc(Nc2cc3nc4ccccc4n(-c4ccc(C)cc4)c-3cc2=NC2CCNCC2)cc1 [Compound B4070, N,5-bis(4-methylphenyl)-3,5-dihydro-3-[(4-piperidyl)imino]-2-phenazinamine] | 193 ng/mL | 54 ng/mL | 159 ng/mL (≈ 0.336 µM) | 
3 | CC1(C)CC(N=c2cc3n(-c4ccc(C(F)(F)F)cc4)c4ccccc4nc-3cc2Nc2ccc(C(F)(F)F)cc2)CC(C)(C)N1 [Compound B4103, N,5-bis(4-trifluoromethylphenyl)-3,5-dihydro-3[(2',2',6',6'-tetramethyl-4-piperidyl)imino]-2-phenazinamine] | 269 ng/mL | 51 ng/mL | 351 ng/mL (≈ 0.55 µM) | 
4 | CC1(C)CC(N=c2cc3n(-c4cc(Cl)cc(Cl)c4)c4ccccc4nc-3cc2Nc2cc(Cl)cc(Cl)c2)CC(C)(C)N1 [Compound B4121] | 722 ng/mL |  | 2250 ng/mL (≈ 3.52 µM) | 
5 | CC1(C)CC(N=c2cc3n(-c4cccc(C(F)(F)F)c4)c4ccccc4nc-3cc2Nc2cccc(C(F)(F)F)c2)CC(C)(C)N1 [Compound B4126, N,5-bis(3-trifluoromethyl-4-phenyl)-3,5-dihydro-3-[(2',2',6',6'-tetramethyl-4-piperidyl)-imino]-2-phenazinamine] | 246 ng/mL | 71 ng/mL | 316 ng/mL (≈ 0.496 µM) | 
6 | CC1(C)CC(N=c2cc3n(-c4cccc(C(F)(F)F)c4)c4ccc(Cl)cc4nc-3cc2Nc2cccc(C(F)(F)F)c2)CC(C)(C)N1 [Compound B4127, N,5-bis(3-trifluoromethylphenyl)-8-chloro-3,5-dihydro-3-[(2',2',6',6'-tetramethyl-4-piperidyl)-imino]-2-phenazinamine] | 168 ng/mL | 70 ng/mL | 425 ng/mL (≈ 0.632 µM) | 
7 | CCN(CC)CCCN=c1cc2n(-c3ccc(Cl)c(Cl)c3)c3ccccc3nc-2cc1Nc1ccc(Cl)c(Cl)c1 [Compound B4154] | 296 ng/mL | 118 ng/mL | 353 ng/mL (≈ 0.575 µM) | 
8 | CC1(C)CC(N=c2cc3n(-c4ccc(Cl)c(C(F)(F)F)c4)c4ccccc4nc-3cc2Nc2ccc(Cl)c(C(F)(F)F)c2)CC(C)(C)N1 [Compound B4163, N,5-bis[(3-trifluoromethyl)-4-chlorophenyl]-3,5-dihydro-3-[(2',2',6',6'-tetramethylpiperidyl)-imino]-2-phenazinamie] | 227 ng/mL | < 50 ng/mL | 340 ng/mL (≈ 0.481 µM) | 
9 | O=P1(N(CCCl)CCCl)NCCCO1 (stereo not shown) [Cyclophosphamide] |  |  |  | fold sensitivity compared with the chemotherapeutic agent without the MDR inhibitor, B669 (H69/P; H69/P, with B669 0.5 µg/ml): 1.0 fold; fold sensitivity compared with the chemotherapeutic agent without the MDR inhibitor, Clofazimine (B663) (H69/P; [4]): 0.9 fold; fold sensitivity compared with the chemotherapeutic agent without the MDR inhibitor, CsA (H69/P; H69/P): 1.1 fold; IC50 (H69/P; [5]): 1800 ng/mL (≈ 6.89 µM); IC50 (H69/P; [6]): 1900 ng/mL (≈ 7.28 µM); IC50 (H69/P; [7]): 1600 ng/mL (≈ 6.13 µM); IC50 (H69/P; [8]): 1800 ng/mL (≈ 6.89 µM); IC50 (H69/LX4; [5]): 1400 ng/mL (≈ 5.36 µM); IC50 (H69/LX4; [6]): 1600 ng/mL (≈ 6.13 µM); IC50 (H69/LX4; [7]): 1700 ng/mL (≈ 6.51 µM); IC50 (H69/LX4; [8]): 1600 ng/mL (≈ 6.13 µM)
10 | COc1cccc2c1C(=O)c1c(O)c3c(c(O)c1C2=O)C[C@@](O)(C(C)=O)C[C@@H]3O[C@H]1C[C@H](N)[C@H](O)[C@H](C)O1 [Daunorubicin] |  |  |  | fold sensitivity compared with the chemotherapeutic agent without the MDR inhibitor, B669 (H69/P; H69/P, with B669 0.5 µg/ml): 1.2 fold; fold sensitivity compared with the chemotherapeutic agent without the MDR inhibitor, Clofazimine (B663) (H69/P; [4]): 1.0 fold; fold sensitivity compared with the chemotherapeutic agent without the MDR inhibitor, CsA (H69/P; H69/P): 1.0 fold; IC50 (H69/P; [7]): 2 ng/mL (≈ 0.00379 µM); IC50 (H69/P; [9]): 2 ng/mL (≈ 0.00379 µM); IC50 (H69/P; [10]): 1.6 ng/mL (≈ 0.00303 µM); IC50 (H69/P; [11]): 2 ng/mL (≈ 0.00379 µM); IC50 (H69/LX4; [7]): 4 ng/mL (≈ 0.00758 µM); IC50 (H69/LX4; [12]): 36 ng/mL (≈ 0.0682 µM); IC50 (H69/LX4; [13]): 15 ng/mL (≈ 0.0284 µM); IC50 (H69/LX4; [14]): 9 ng/mL (≈ 0.0171 µM)
11 | COc1cccc2c1C(=O)c1c(O)c3c(c(O)c1C2=O)C[C@@](O)(C(=O)CO)C[C@@H]3O[C@H]1C[C@H](N)[C@H](O)[C@H](C)O1 [Doxorubicin] |  |  |  | fold sensitivity compared with the chemotherapeutic agent without the MDR inhibitor, B669 (H69/P; H69/P, with B669 0.5 µg/ml): 1.0 fold; fold sensitivity compared with the chemotherapeutic agent without the MDR inhibitor, Clofazimine (B663) (H69/P; [4]): 0.8 fold; fold sensitivity compared with the chemotherapeutic agent without the MDR inhibitor, CsA (H69/P; H69/P): 1.0 fold; IC50 (H69/P; [7]): 3 ng/mL (≈ 0.00552 µM); IC50 (H69/P; [9]): 3 ng/mL (≈ 0.00552 µM); IC50 (H69/P; [10]): 3 ng/mL (≈ 0.00552 µM); IC50 (H69/P; [11]): 4 ng/mL (≈ 0.00736 µM); IC50 (H69/LX4; [7]): 10 ng/mL (≈ 0.0184 µM); IC50 (H69/LX4; [12]): 110 ng/mL (≈ 0.202 µM); IC50 (H69/LX4; [13]): 16 ng/mL (≈ 0.0294 µM); IC50 (H69/LX4; [14]): 10 ng/mL (≈ 0.0184 µM)
12 | COc1cc([C@@H]2c3cc4c(cc3[C@@H](O[C@@H]3O[C@@H]5CO[C@@H](C)O[C@H]5[C@H](O)[C@H]3O)[C@H]3COC(=O)[C@H]23)OCO4)cc(OC)c1O [Etoposide] |  |  |  | fold sensitivity compared with the chemotherapeutic agent without the MDR inhibitor, B669 (H69/P; H69/P, with B669 0.5 µg/ml): 1.2 fold; fold sensitivity compared with the chemotherapeutic agent without the MDR inhibitor, Clofazimine (B663) (H69/P; [4]): 0.6 fold; fold sensitivity compared with the chemotherapeutic agent without the MDR inhibitor, CsA (H69/P; H69/P): 0.8 fold; IC50 (H69/P; [7]): 0.09 ng/mL (≈ 0.000153 µM); IC50 (H69/P; [9]): 0.7 ng/mL (≈ 0.00119 µM); IC50 (H69/P; [10]): 0.06 ng/mL (≈ 0.000102 µM); IC50 (H69/P; [11]): 0.11 ng/mL (≈ 0.000187 µM); IC50 (H69/LX4; [7]): 0.08 ng/mL (≈ 0.000136 µM); IC50 (H69/LX4; [12]): 13 ng/mL (≈ 0.0221 µM); IC50 (H69/LX4; [13]): 0.09 ng/mL (≈ 0.000153 µM); IC50 (H69/LX4; [14]): 2.6 ng/mL (≈ 0.00442 µM)

Second part, led by results:

Row | IC50 (K562/MMB; [1]) | IC50 (K562/MMB; [2]) | IC50 (K562/MMB; [3]) | Compound | other results
13 | 139 ng/mL | < 50 ng/mL | 197 ng/mL (≈ 0.326 µM) | CC1(C)CC(N=c2cc3n(-c4ccc(Cl)cc4)c4ccc(Cl)cc4nc-3cc2Nc2ccc(Cl)cc2)CC(C)(C)N1 [Compound B4090] | 
14 | 278 ng/mL | 95 ng/mL | 335 ng/mL (≈ 0.524 µM) | CC1(C)CC(N=c2cc3n(-c4ccc(Cl)c(Cl)c4)c4ccccc4nc-3cc2Nc2ccc(Cl)c(Cl)c2)CC(C)(C)N1 [Compound B4100] | 
15 | 181 ng/mL | < 50 ng/mL | 333 ng/mL (≈ 0.55 µM) | CC1(C)CC(N=c2cc3n(-c4cccc(Cl)c4)c4ccc(Cl)cc4nc-3cc2Nc2cccc(Cl)c2)CC(C)(C)N1 [Compound B4123, N,5-bis(3-chlorophenyl)-8-chloro-3,5-dihydro-3[(2,2',6',6'-tetramethyl-4-piperidyl)-imino]-2-phenazinamine] | 
16 | 215 ng/mL | 59 ng/mL | 383 ng/mL (≈ 0.599 µM) | CC1(C)CC(N=c2cc3n(-c4ccc(Cl)cc4Cl)c4ccccc4nc-3cc2Nc2ccc(Cl)cc2Cl)CC(C)(C)N1 [Compound B4128] | 
17 | 155 ng/mL | 58 ng/mL | 272 ng/mL (≈ 0.464 µM) | CC(C)c1ccc(Nc2cc3nc4ccccc4n(-c4ccc(C(C)C)cc4)c-3cc2=NC2CC(C)(C)NC(C)(C)C2)cc1 [Compound B4158, N,5-bis(4-isopropylphenyl)-3,5-dihydro-3-[(2',2',6',6'-tetramethyl-4-piperidyl)-imino]-2-phenazinamine] | 
18 | 514 ng/mL | 130 ng/mL | 912 ng/mL (≈ 1.47 µM) | CC(C)c1ccc(Nc2cc3nc4cc(Cl)ccc4n(-c4ccc(C(C)C)cc4)c-3cc2=NC2CC(C)(C)NC(C)(C)C2)cc1 [Compound B4159, N,5-bis(4-isopropylphenyl)-8-chloro-3,5-dihydro-3-[(2',2',6',6'-tetramethyl-4-piperidyl)-imino]-2-phenazinamine] | 
19 | 210 ng/mL | 178 ng/mL | 316 ng/mL (≈ 0.563 µM) | COc1ccc(Nc2cc3nc4ccccc4n(-c4ccc(OC)cc4)c-3cc2=NC2CC(C)(C)NC(C)(C)C2)cc1 [Compound B4174, N,5-bis(4-methoxyphenyl)-3,5-dihydro-3-[(2',2',6',6'-tetramethyl-4-piperidyl)-imino]-2-phenazinamine] | 
